This data set in a line: photocatalytic hydrogen evolution rate (per 5 mg catalyst); higher = more photocatalytic H2 evolution; extreme values may be limits of the assay. The settings on record: catalyst mass (mg): 5; Pt cocatalyst (wt%): 3; sacrificial medium: triethylamine/methanol/water 1:1:1.
`O=Cc1cc(F)cc(Br)c1`: the “photocatalytic hydrogen evolution rate” value amounted to 0.0795 µmol/h. On to `O=Cc1cc(C=O)c(O)c(C=O)c1`, for which the “photocatalytic hydrogen evolution rate” value is 10.9 µmol/h.

Regarding `N#CC(C#N)=c1ccc(=C(C#N)C#N)cc1`, the “photocatalytic hydrogen evolution rate” value was 0 µmol/h.

Take `O=C1NC(=O)c2ccc3c4ccc5c6c(ccc(c7ccc1c2c73)c64)C(=O)NC5=O`: the “photocatalytic hydrogen evolution rate” value stood at 0 µmol/h. Under `COc1cc(C=O)ccc1O` stands 0.0183 µmol/h. On to `Nc1cc(Br)ccc1-c1ccc(Br)cc1N`, for which the “photocatalytic hydrogen evolution rate” value is 0.0732 µmol/h. In the case of `Fc1c(F)c(F)c(-c2c(F)c(F)c(F)c(F)c2F)c(F)c1F`, the “photocatalytic hydrogen evolution rate” value amounted to 0 µmol/h.

As for `Brc1ccc2ccc3cccc4ccc1c2c34`, the “photocatalytic hydrogen evolution rate” value was 0.369 µmol/h. With `N#Cc1ccc(C=O)cn1`, the “photocatalytic hydrogen evolution rate” value came out at 0 µmol/h. In the case of `CCCCCCCCCCCCC1(CCCCCCCCCCCC)c2cc(B(O)O)ccc2-c2ccc(B(O)O)cc21`, the “photocatalytic hydrogen evolution rate” value was determined as 0.132 µmol/h. Next, `CC1(C)OB(c2ccc3c(c2)[nH]c2ccccc23)OC1(C)C`: 0 µmol/h; `Cc1cc(C#N)ccc1N`: 0.0133 µmol/h; `O=C1C(F)=C(F)C(=O)C(F)=C1F`: 0 µmol/h. `c1ccc(N=C(Nc2ccccc2)Nc2ccccc2)cc1`: the “photocatalytic hydrogen evolution rate” value is 0 µmol/h. Under `O=Cc1cc(Br)ccc1O` stands 10.5 µmol/h; under `Cc1c(O)cccc1O`, 0 µmol/h. For `CCc1ccc(C(=O)CC#N)cc1`, the “photocatalytic hydrogen evolution rate” value was 0.0661 µmol/h. Turning to `O=C(O)C(c1ccccc1)(c1ccccc1)c1ccccc1`, the “photocatalytic hydrogen evolution rate” value was determined as 0 µmol/h.

For the molecule `O=C1C(O)=C(O)C(=O)C(O)=C1O`, the “photocatalytic hydrogen evolution rate” value turned out to be 0 µmol/h. Next, `Cc1cc(C)cc(-c2cc(C)cc(C)c2)c1`: 0 µmol/h. Next, `N#CCc1ccc(CC#N)cc1`: 0 µmol/h. Under `c1ccc(N(c2ccccc2)c2ccccc2)cc1` stands 0 µmol/h; under `Cc1ccc(C)c(N=Nc2cc(C)c(N=Nc3c(O)ccc4ccccc34)cc2C)c1`, 0 µmol/h. Consider `N#Cc1cccc(Br)n1`, for which the “photocatalytic hydrogen evolution rate” value came to 0 µmol/h. Under `N#CCc1ccc(C=O)cc1` stands 4.22 µmol/h; under `Cc1c(C)c(Br)c(C)c(C)c1Br`, 0 µmol/h; under `Nc1cc(Br)c(Br)cc1N`, 0 µmol/h. Consider `CC1(C)OB(c2ccc(-n3c4ccccc4c4ccccc43)cc2)OC1(C)C`, for which the “photocatalytic hydrogen evolution rate” value stood at 0.135 µmol/h.

For `Brc1ccc(-c2cc(-c3ccc(Br)cc3)cc(-c3ccc(Br)cc3)c2)cc1`, the “photocatalytic hydrogen evolution rate” value worked out at 0 µmol/h. `C(C#Cc1ccccc1)#Cc1ccccc1`: the “photocatalytic hydrogen evolution rate” value is 0 µmol/h. Turning to `O=Cc1ccc(Br)c(Cl)c1`, the “photocatalytic hydrogen evolution rate” value was 1.45 µmol/h. Next, `O=Cc1cncnc1`: 0.0364 µmol/h; `N#Cc1ccc(C#N)cc1`: 0 µmol/h. On to `N#Cc1ccc(F)cc1`, for which the “photocatalytic hydrogen evolution rate” value turned out to be 0 µmol/h. On to `N#Cc1ccc(C#N)nc1`, for which the “photocatalytic hydrogen evolution rate” value amounted to 0.0617 µmol/h. Next, `Brc1cnc(Br)c2nsnc12`: 0 µmol/h; `CC1(C)OB(c2c3ccccc3c(B3OC(C)(C)C(C)(C)O3)c3ccccc23)OC1(C)C`: 0 µmol/h. Next, `N#Cc1nc(N)c(N)nc1C#N`: 0 µmol/h; `OB(O)c1ccc(Br)nc1`: 0 µmol/h.

`N#Cc1ccc(-c2ccc(C#N)cc2)cc1`: the “photocatalytic hydrogen evolution rate” value stood at 0 µmol/h. Consider `COc1ccc2c3c(cccc13)C(=O)N(C)C2=O`, for which the “photocatalytic hydrogen evolution rate” value is 1.91 µmol/h. With `Fc1cc(Br)c(F)cc1Br`, the “photocatalytic hydrogen evolution rate” value was 0 µmol/h. In the case of `CC1(C)OB(c2cc(B3OC(C)(C)C(C)(C)O3)cc(B3OC(C)(C)C(C)(C)O3)c2)OC1(C)C`, the “photocatalytic hydrogen evolution rate” value is 0.0124 µmol/h. Under `O=c1[nH]cc(Br)nc1Br` stands 0 µmol/h; under `N#Cc1c2ccccc2c(C#N)c2ccccc12`, 0.0714 µmol/h; under `N#Cc1ncccc1Br`, 0 µmol/h.

Regarding `Nc1nc2ccccc2[nH]1`, the “photocatalytic hydrogen evolution rate” value is 0 µmol/h.

With `O=C(/C=C/c1ccccc1)c1ccccc1`, the “photocatalytic hydrogen evolution rate” value worked out at 0.146 µmol/h. As to `N#Cc1c(F)cc(F)cc1F`, the “photocatalytic hydrogen evolution rate” value is 0.0527 µmol/h. Under `CC1(C)OB(c2ccc(-c3cccs3)s2)OC1(C)C` stands 0 µmol/h. As to `Cc1cc(-c2ccc(N)c(C)c2)ccc1N`, the “photocatalytic hydrogen evolution rate” value turned out to be 0 µmol/h. Under `COC(=O)c1cc(C(=O)OC)cc(C(=O)OC)c1` stands 0.0198 µmol/h. Under `COC(=O)c1ccc(C(=O)OC)cc1` stands 0.0838 µmol/h; under `CC1(C)OB(c2ccc(B3OC(C)(C)C(C)(C)O3)c3nsnc23)OC1(C)C`, 0 µmol/h; under `c1ccc2nsnc2c1`, 0 µmol/h. In the case of `c1ccc(P(c2ccccc2)c2ccc3ccccc3c2-c2c(P(c3ccccc3)c3ccccc3)ccc3ccccc23)cc1`, the “photocatalytic hydrogen evolution rate” value came out at 0 µmol/h. Under `CC(Oc1ccc(Br)cc1Br)C(=O)NN` (stereo not given) stands 0 µmol/h; under `C#Cc1cnc[nH]1`, 0 µmol/h. Next, `O=C1c2ccccc2C(=O)C1(O)O`: 0 µmol/h. Next, `N#Cc1ccnc(C#N)c1`: 0 µmol/h; `O=Cc1ccc2nsnc2c1`: 0 µmol/h; `c1ccc(-c2ccc(-c3ccc(-c4ccc(-c5ccc(-c6ccccc6)cc5)cc4)cc3)cc2)cc1`: 0 µmol/h. `N#Cc1cc(Br)ccc1Br`: the “photocatalytic hydrogen evolution rate” value was 0 µmol/h. As to `N#Cc1c(-n2c3ccccc3c3ccccc32)c(C#N)c(-n2c3ccccc3c3ccccc32)c(-n2c3ccccc3c3ccccc32)c1-n1c2ccccc2c2ccccc21`, the “photocatalytic hydrogen evolution rate” value was 20.5 µmol/h. `Brc1cc(Br)c2ccc3c(Br)cc(Br)c4ccc1c2c43`: the “photocatalytic hydrogen evolution rate” value worked out at 0.383 µmol/h.

For the molecule `O=Cc1ccc(N(c2ccccc2)c2ccccc2)cc1`, the “photocatalytic hydrogen evolution rate” value amounted to 0.317 µmol/h. Under `O=C(O)c1ccc(-c2cc(-c3ccccn3)nc(-c3ccccn3)c2)cc1` stands 0.441 µmol/h. As to `N#Cc1ccc(Br)cc1F`, the “photocatalytic hydrogen evolution rate” value is 0 µmol/h. Under `O=Cc1ccc(Oc2ccc(C=O)cc2)cc1` stands 2.42 µmol/h; under `c1ccc(Nc2cc(Nc3ccccc3)cc(Nc3ccccc3)c2)cc1`, 0 µmol/h; under `Oc1cc(Br)c(O)cc1Br`, 0 µmol/h. Regarding `N#CCc1ccc(B(O)O)cc1`, the “photocatalytic hydrogen evolution rate” value came to 0 µmol/h.

On to `O=C(O)C1CCN(C(=O)c2ccccc2)CC1`, for which the “photocatalytic hydrogen evolution rate” value was 0 µmol/h. For `CCN1C(=O)C(=O)c2cc(Br)cc(Br)c21`, the “photocatalytic hydrogen evolution rate” value was 0.105 µmol/h. Under `N#Cc1c(-n2c3ccccc3c3ccccc32)c(-n2c3ccccc3c3ccccc32)c(C#N)c(-n2c3ccccc3c3ccccc32)c1-n1c2ccccc2c2ccccc21` stands 1.6 µmol/h; under `C=Cc1ccccc1`, 0 µmol/h.

As to `CCCCCCCCC1(CCCCCCCC)c2cc(B3OC(C)(C)C(C)(C)O3)ccc2-c2ccc(B3OC(C)(C)C(C)(C)O3)cc21`, the “photocatalytic hydrogen evolution rate” value was 0.0342 µmol/h. As for `O=Cc1cc(O)c(O)c(O)c1`, the “photocatalytic hydrogen evolution rate” value worked out at 0 µmol/h. Next, `O=C1c2ccc(Br)cc2C(=O)c2ccc(Br)cc21`: 0 µmol/h. Under `O=Cc1ncc[nH]1` stands 0.469 µmol/h. As to `Brc1cccc(Br)n1`, the “photocatalytic hydrogen evolution rate” value came to 0 µmol/h. On to `c1ccc2c(c1)ccc1c3ccccc3ccc21`, for which the “photocatalytic hydrogen evolution rate” value stood at 0 µmol/h. Under `CC1(C)c2cc(Br)ccc2-c2ccc(Br)cc21` stands 0.0799 µmol/h; under `N#CC(C#N)=c1c(F)c(F)c(=C(C#N)C#N)c(F)c1F`, 0 µmol/h.

In the case of `O=S1(=O)c2ccc(Br)cc2-c2cc(Br)ccc21`, the “photocatalytic hydrogen evolution rate” value was determined as 0.009 µmol/h. Next, `O=C1c2cc3ccccc3cc2C(=O)c2cc3ccccc3cc21`: 6.86 µmol/h. Next, `O=Cc1c2ccccc2cc2ccccc12`: 2.06 µmol/h; `O=Cc1ccc(-c2ccc(C=O)cc2)cc1`: 8.89 µmol/h; `O=Cc1sc(Br)nc1Br`: 0 µmol/h. Under `c1ccc2c(c1)C1c3ccccc3C2c2ccccc21` stands 0.0408 µmol/h; under `c1ccc(-c2cc(-c3ccccc3)cc(-c3ccccc3)c2)cc1`, 0.0457 µmol/h.

Regarding `O=Cc1ccc(C=O)s1`, the “photocatalytic hydrogen evolution rate” value was determined as 0.129 µmol/h. `N#Cc1ccc(C=O)s1`: the “photocatalytic hydrogen evolution rate” value was found to be 0.0384 µmol/h. In the case of `COc1ccc(I)cc1`, the “photocatalytic hydrogen evolution rate” value was 0 µmol/h. Next, `N#Cc1cncc(Br)c1`: 0 µmol/h. Next, `O=Cc1ccc(-c2nc(-c3ccc(C=O)cc3)nc(-c3ccc(C=O)cc3)n2)cc1`: 0.298 µmol/h. For `Cc1ccc(Nc2ccc(C)cc2)cc1`, the “photocatalytic hydrogen evolution rate” value turned out to be 0.074 µmol/h.

In the case of `O=C1C=C(Br)C(=O)C=C1Br`, the “photocatalytic hydrogen evolution rate” value turned out to be 0 µmol/h. As for `COC(=O)c1ccc2cc(C(=O)OC)ccc2c1`, the “photocatalytic hydrogen evolution rate” value came to 0.0623 µmol/h. Under `O=Cc1cc(O)cc(F)c1` stands 0 µmol/h; under `N#Cc1cccnc1Br`, 0 µmol/h.

Regarding `OB(O)c1ccc(B(O)O)cc1`, the “photocatalytic hydrogen evolution rate” value was 0.053 µmol/h. Next, `Nc1ccc(Br)cc1`: 0 µmol/h; `OC(c1ccccc1)(c1ccccc1)c1ccccc1`: 0 µmol/h; `N#Cc1cc(O)cc(C#N)c1`: 2.14 µmol/h.

(Values after the supplement of paper PMC8372320.)
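Further: aromatic molecules in triethylamine/methanol/water with Pt photoreduced in situ, irradiated 3 h under a 1 sun AM 1.5G solar simulator (350–1000 nm), H2 quantified by headspace gas chromatography; listed molecule itself used as the photocatalyst at 5 mg per vial.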
